Data reported in PubChem BioAssay (NCI).
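Grown in 96-well plates, cells were treated for 48 hours with each compound at five concentrations. Insufficient inhibition: endpoint recorded as highest concentration tested. GI50 = concentration required for 50% inhibition of growth. TGI denotes the concentration required for complete inhibition of growth.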

Assays:
Assay in all cases: NCI-60 cell line screen, 48 h
[1] = system: OVCAR-4 ovarian
[2] = system: HL-60(TB) leukemia
[3] = system: UO-31 renal
[4] = system: SF-295 CNS
[5] = system: UACC-62 melanoma
[6] = system: MDA-MB-231 breast
[7] = system: 786-0 renal
[8] = system: NCI-H23 lung
[9] = system: SNB-19 CNS
[10] = system: RPMI-8226 leukemia
[11] = system: HCT-15 colon
[12] = system: SK-MEL-28 melanoma
[13] = system: K-562 leukemia
[14] = system: MALME-3M melanoma
[15] = system: SW-620 colon
[16] = system: NCI-H226 lung
[17] = system: A549 NSCLC
[18] = system: RXF 393 renal
[19] = system: SR leukemia
[20] = system: U251 CNS
[21] = system: LOX IMVI melanoma
[22] = system: MOLT-4 leukemia
[23] = system: CCRF-CEM leukemia
[24] = system: HCC-2998 colon
[25] = system: EKVX NSCLC
[26] = system: ACHN renal
[27] = system: SK-MEL-5 melanoma
[28] = system: COLO 205 colon
[29] = system: M14 melanoma
[30] = system: HT29 colon
[31] = system: MCF7 breast
[32] = system: HCT-116 colon
[33] = system: A498 renal
[34] = system: DU-145 prostate
[35] = system: HS 578T breast
[36] = system: OVCAR-8 ovarian
[37] = system: SK-OV-3 ovarian
[38] = system: SF-539 CNS
[39] = system: NCI-H522 lung
[40] = system: IGROV1 ovarian
[41] = system: PC-3 prostate
[42] = system: SNB-75 CNS
[43] = system: BT-549 breast
[44] = system: TK-10 renal
[45] = system: NCI-H460 lung
[46] = system: SF-268 CNS
[47] = system: HOP-62 NSCLC
[48] = system: OVCAR-5 ovarian
[49] = system: UACC-257 melanoma
[50] = system: OVCAR-3 ovarian
[51] = system: CAKI-1 renal
[52] = system: HOP-92 NSCLC
[53] = system: SN12C renal
[54] = system: NCI/ADR-RES ovarian

SMILES: COc1ccc(-c2oc3cc(O)cc(O)c3c(=O)c2OC)cc1O
- GI50 [1]: 3160 nM
- TGI [1]: > 16500 nM
- GI50 [2]: 445 nM
- TGI [2]: 1100 nM
- GI50 [3]: 1860 nM
- TGI [3]: > 16500 nM
- GI50 [4]: 2300 nM
- TGI [4]: 8660 nM
- GI50 [5]: 880 nM
- TGI [5]: > 16500 nM
- GI50 [6]: 1220 nM
- TGI [6]: > 16500 nM
- GI50 [7]: 4870 nM
- TGI [7]: > 16500 nM
- GI50 [8]: 945 nM
- TGI [8]: > 16500 nM
- GI50 [9]: 1200 nM
- TGI [9]: > 16500 nM
- GI50 [10]: 726 nM
- TGI [10]: > 16500 nM
- GI50 [11]: 749 nM
- TGI [11]: > 16500 nM
- GI50 [12]: 1120 nM
- TGI [12]: > 16500 nM
- GI50 [13]: 613 nM
- TGI [13]: > 16500 nM
- GI50 [14]: > 16500 nM
- TGI [14]: > 16500 nM
- GI50 [15]: 665 nM
- TGI [15]: > 16500 nM
- GI50 [16]: > 16500 nM
- TGI [16]: > 16500 nM
- GI50 [17]: 6270 nM
- TGI [17]: > 16500 nM
- GI50 [18]: 1210 nM
- TGI [18]: 5990 nM
- GI50 [19]: 627 nM
- TGI [19]: > 16500 nM
- GI50 [20]: 631 nM
- TGI [20]: 6050 nM
- GI50 [21]: 1020 nM
- TGI [21]: > 16500 nM
- GI50 [22]: 743 nM
- TGI [22]: > 16500 nM
- GI50 [23]: 853 nM
- TGI [23]: > 16500 nM
- GI50 [24]: 4630 nM
- TGI [24]: > 16500 nM
- GI50 [25]: 6420 nM
- TGI [25]: > 16500 nM
- GI50 [26]: 1250 nM
- TGI [26]: > 16500 nM
- GI50 [27]: 724 nM
- TGI [27]: > 16500 nM
- GI50 [28]: > 16500 nM
- TGI [28]: > 16500 nM
- GI50 [29]: 509 nM
- TGI [29]: > 16500 nM
- GI50 [30]: 5830 nM
- TGI [30]: > 16500 nM
- GI50 [31]: 762 nM
- TGI [31]: > 16500 nM
- GI50 [32]: 646 nM
- TGI [32]: > 16500 nM
- GI50 [33]: 3500 nM
- TGI [33]: 14600 nM
- GI50 [34]: 1100 nM
- TGI [34]: > 16500 nM
- GI50 [35]: 762 nM
- TGI [35]: > 16500 nM
- GI50 [36]: 1030 nM
- TGI [36]: > 16500 nM
- GI50 [37]: 1520 nM
- TGI [37]: > 16500 nM
- GI50 [38]: 495 nM
- TGI [38]: 1720 nM
- GI50 [39]: 446 nM
- TGI [39]: 1430 nM
- GI50 [40]: 4160 nM
- TGI [40]: > 16500 nM
- GI50 [41]: 2740 nM
- TGI [41]: > 16500 nM
- GI50 [42]: 406 nM
- TGI [42]: 3450 nM
- GI50 [43]: 850 nM
- TGI [43]: > 16500 nM
- GI50 [44]: 7750 nM
- TGI [44]: > 16500 nM
- GI50 [45]: 663 nM
- TGI [45]: > 16500 nM
- GI50 [46]: 1400 nM
- TGI [46]: > 16500 nM
- GI50 [47]: 814 nM
- TGI [47]: > 16500 nM
- GI50 [48]: 8690 nM
- TGI [48]: > 16500 nM
- GI50 [49]: > 16500 nM
- TGI [49]: > 16500 nM
- GI50 [50]: 490 nM
- TGI [50]: 2620 nM
- GI50 [51]: 3260 nM
- TGI [51]: > 16500 nM
- GI50 [52]: 855 nM
- TGI [52]: > 16500 nM
- GI50 [53]: 4250 nM
- TGI [53]: > 16500 nM
- GI50 [54]: 583 nM
- TGI [54]: 6840 nM
